Source: patent US10934298B2, “Substituted pyrazolo[1,5-a]pyrimidines for the treatment of medical disorders” (BIAL—BioTech Investments, Inc., priority 2016, dated 2021)

Target: T1, glucocerebrosidase (Gcase) (Homo sapiens, UniProt P04062)
T1 construct: micellar solution containing 10 nM GCase and 100 nM saposin C
T1 sequence (P04062 40-536): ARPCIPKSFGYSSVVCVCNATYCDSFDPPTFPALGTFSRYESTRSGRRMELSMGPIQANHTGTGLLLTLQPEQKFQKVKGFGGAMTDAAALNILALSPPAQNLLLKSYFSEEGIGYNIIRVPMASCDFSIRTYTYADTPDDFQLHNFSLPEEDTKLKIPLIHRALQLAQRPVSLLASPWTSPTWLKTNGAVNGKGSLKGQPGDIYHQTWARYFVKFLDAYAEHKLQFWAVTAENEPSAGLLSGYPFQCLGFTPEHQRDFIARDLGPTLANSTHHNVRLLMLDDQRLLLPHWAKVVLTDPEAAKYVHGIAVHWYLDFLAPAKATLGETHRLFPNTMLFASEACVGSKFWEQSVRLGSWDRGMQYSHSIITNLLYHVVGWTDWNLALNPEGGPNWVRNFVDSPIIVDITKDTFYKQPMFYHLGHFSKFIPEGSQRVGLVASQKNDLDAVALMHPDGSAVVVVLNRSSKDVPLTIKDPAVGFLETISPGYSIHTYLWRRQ
Assay: Glucocerebrosidase (Gcase) activation assay with 4-methylumbelliferyl-beta-D-glucopyranoside substrate, saposin C and phosphatidylserine/triton micelles, fluorescence readout
Type: biochemical
Outline: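 Fluorescence (ex 365 nm, em 440 nm) read after glycine pH 12.5 stop of a 15 min room-temperature reaction. GCase 10 nM plus saposin C 100 nM in PS/triton micelles, pH 4.7, preincubated 30 min with compound; substrate solution held 2 mM 4-MU-beta-glucoside. Screened at 1.0 and 0.1 μM; 8-point, 3-fold curves from 5 μM top.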

Percent Gcase Activation, 0.1 μM Test Compound (test compound at 0.1 μM) | Percent Gcase Activation, 1 μM Test Compound (test compound at 1.0 μM) | Percent Gcase Activation, 0.1 μM Test Compound (0.1 μM test compound) | Percent Gcase Activation, 1 μM Test Compound (1 μM test compound) | SMILES
– | – | *** (greater than 20% Gcase activation) | +++ (Gcase activation greater than 60%) | Cc1cc(-c2cncc(C(F)(F)F)c2)nc2c(C(=O)NC(C)C(F)(F)F)cnn12 (stereo not drawn) [III-285]
– | – | *** (greater than 20% Gcase activation) | +++ (Gcase activation greater than 60%) | Cc1cc(-c2cncc(C(F)(F)F)c2)nc2c(C(=O)N[C@H](C)C(F)(F)F)cnn12 [III-286]
– | – | *** (greater than 20% Gcase activation) | +++ (Gcase activation greater than 60%) | Cc1cc(-c2cncc(C(F)(F)F)c2)nc2c(C(=O)N[C@@H](C)C(F)(F)F)cnn12 [III-287]
– | – | *** (greater than 20% Gcase activation) | +++ (Gcase activation greater than 60%) | Cc1cc(-c2ccc3c(c2)OCO3)nc2c(C(=O)NC(C)C(F)(F)F)cnn12 (stereo not drawn) [III-289]
– | – | *** (greater than 20% Gcase activation) | +++ (Gcase activation greater than 60%) | Cc1cc(-c2cncc(Cl)c2)nc2c(C(=O)N[C@@H](C)C3CC3)cnn12 [III-290]
– | – | *** (greater than 20% Gcase activation) | +++ (Gcase activation greater than 60%) | Cc1cc(-c2cncc(Cl)c2)nc2c(C(=O)N[C@H](C)C3CC3)cnn12 [III-291]
– | – | *** (greater than 20% Gcase activation) | +++ (Gcase activation greater than 60%) | Cc1cc(-c2cncc(Cl)c2)nc2c(C(=O)NC(C)(C)C3CC3)cnn12 [III-292]
– | – | *** (greater than 20% Gcase activation) | +++ (Gcase activation greater than 60%) | CCCCO[C@H]1CC[C@H](NC(=O)c2cnn3c(C)cc(-c4cncc(Cl)c4)nc23)CC1 [III-293]
– | – | *** (greater than 20% Gcase activation) | +++ (Gcase activation greater than 60%) | Cc1cc(-c2cc(F)c3c(c2)OCO3)nc2c(C(=O)NC(C)C(F)(F)F)cnn12 (stereo not drawn) [III-294]
– | – | *** (greater than 20% Gcase activation) | +++ (Gcase activation greater than 60%) | Cc1cc(-c2cc(F)c3ocnc3c2)nc2c(C(=O)NC(C)C(F)(F)F)cnn12 (stereo not drawn) [III-295]
– | – | *** (greater than 20% Gcase activation) | +++ (Gcase activation greater than 60%) | Cc1cc(-c2cc(F)c3ocnc3c2)nc2c(C(=O)N[C@H](C)C(F)(F)F)cnn12 [III-296]
– | – | *** (greater than 20% Gcase activation) | +++ (Gcase activation greater than 60%) | Cc1cc(-c2cc(F)c3ocnc3c2)nc2c(C(=O)N[C@@H](C)C(F)(F)F)cnn12 [III-297]
– | – | *** (greater than 20% Gcase activation) | +++ (Gcase activation greater than 60%) | COCCOc1ccc(-c2cc(C)n3ncc(C(=O)NC(C)C(F)(F)F)c3n2)cc1F (stereo not drawn) [III-298]
– | – | *** (greater than 20% Gcase activation) | +++ (Gcase activation greater than 60%) | Cc1cc(-c2ccc(N3CCOCC3)c(F)c2)nc2c(C(=O)NC(C)C(F)(F)F)cnn12 (stereo not drawn) [III-299]
– | – | *** (greater than 20% Gcase activation) | +++ (Gcase activation greater than 60%) | Cc1cc(-c2sccc2C#N)nc2c(C(=O)NC(C)C(F)(F)F)cnn12 (stereo not drawn) [III-300]
– | – | *** (greater than 20% Gcase activation) | +++ (Gcase activation greater than 60%) | Cc1cc(-c2sccc2C#N)nc2c(C(=O)N[C@@H](C)C3CC3)cnn12 [III-301]
– | – | *** (greater than 20% Gcase activation) | +++ (Gcase activation greater than 60%) | Cc1cc(-c2sccc2C#N)nc2c(C(=O)N[C@H](C)C3CC3)cnn12 [III-302]

Second part, the molecule before the results:

SMILES | Percent Gcase Activation, 0.1 μM Test Compound (test compound at 0.1 μM) | Percent Gcase Activation, 1 μM Test Compound (test compound at 1.0 μM) | Percent Gcase Activation, 0.1 μM Test Compound (0.1 μM test compound) | Percent Gcase Activation, 1 μM Test Compound (1 μM test compound)
COc1ccc(-c2cc(C)n3ncc(C(=O)NC(C)C(F)(F)F)c3n2)cn1 (stereo not drawn) [III-271] | *** (greater than 20% Gcase activation) | +++ (Gcase activation greater than 60%) | – | –
COc1ccc(-c2cc(C)n3ncc(C(=O)N[C@H](C)C(F)(F)F)c3n2)cn1 [III-272] | ** (Gcase activation in the range of 10% up to 20%) | +++ (Gcase activation greater than 60%) | – | –
COc1ccc(-c2cc(C)n3ncc(C(=O)N[C@@H](C)C(F)(F)F)c3n2)cn1 [III-273] | *** (greater than 20% Gcase activation) | +++ (Gcase activation greater than 60%) | – | –
Cc1ccncc1-c1cc(C)n2ncc(C(=O)NC(C3CC3)C(F)(F)F)c2n1 (stereo not drawn) [III-274] | * (less than 10% Gcase activation) | +++ (Gcase activation greater than 60%) | – | –
Cc1cncc(-c2cc(C)n3ncc(C(=O)NC(C4CC4)C(F)(F)F)c3n2)c1 (stereo not drawn) [III-275] | *** (greater than 20% Gcase activation) | +++ (Gcase activation greater than 60%) | – | –
Cc1cncc(-c2cc(C)n3ncc(C(=O)N[C@H](C4CC4)C(F)(F)F)c3n2)c1 [III-276] | *** (greater than 20% Gcase activation) | +++ (Gcase activation greater than 60%) | – | –
Cc1cncc(-c2cc(C)n3ncc(C(=O)N[C@@H](C4CC4)C(F)(F)F)c3n2)c1 [III-277] | *** (greater than 20% Gcase activation) | +++ (Gcase activation greater than 60%) | – | –
Cc1ccc(-c2cc(C)n3ncc(C(=O)NC(C4CC4)C(F)(F)F)c3n2)cn1 (stereo not drawn) [III-278] | *** (greater than 20% Gcase activation) | +++ (Gcase activation greater than 60%) | – | –
Cc1ccc(-c2cc(C)n3ncc(C(=O)N[C@H](C4CC4)C(F)(F)F)c3n2)cn1 [III-279] | ** (Gcase activation in the range of 10% up to 20%) | +++ (Gcase activation greater than 60%) | – | –
Cc1ccc(-c2cc(C)n3ncc(C(=O)N[C@@H](C4CC4)C(F)(F)F)c3n2)cn1 [III-280] | *** (greater than 20% Gcase activation) | +++ (Gcase activation greater than 60%) | – | –
Cc1ccncc1-c1cc(C)n2ncc(C(=O)NC(C)C(F)(F)F)c2n1 (stereo not drawn) [III-281] | * (less than 10% Gcase activation) | + (less than 30% Gcase activation) | – | –
Cc1cncc(-c2cc(C)n3ncc(C(=O)NC(C)C(F)(F)F)c3n2)c1 (stereo not drawn) [III-282] | ** (Gcase activation in the range of 10% up to 20%) | +++ (Gcase activation greater than 60%) | – | –
Cc1ccc(-c2cc(C)n3ncc(C(=O)NC(C)C(F)(F)F)c3n2)cn1 (stereo not drawn) [III-283] | – | – | * (less than 10% Gcase activation) | ++ (Gcase activation in the range of 30% up to 60%)
Cc1cc(-c2cnccc2C(F)(F)F)nc2c(C(=O)NC(C)C(F)(F)F)cnn12 (stereo not drawn) [III-284] | – | – | ** (Gcase activation in the range of 10% up to 20%) | +++ (Gcase activation greater than 60%)
Cc1cc(-c2ccc(C(F)(F)F)nc2)nc2c(C(=O)NC(C)C(F)(F)F)cnn12 (stereo not drawn) [III-288] | – | – | ** (Gcase activation in the range of 10% up to 20%) | +++ (Gcase activation greater than 60%)
Cc1cc(-c2ccc3c(c2)ncn3C)nc2c(C(=O)NC(C3CC3)C(F)(F)F)cnn12 (stereo not drawn) [III-303] | – | – | ** (Gcase activation in the range of 10% up to 20%) | + (less than 30% Gcase activation)
